ChEMBL document CHEMBL1152860, “Synthesis and antiproliferative activity of 3-amino-N-phenyl-1H-indazole-1-carboxamides” (2009)

What was measured:
Format in all cases: functional
[1] = system: SK-MEL-5; experiment: Growth inhibition of human SK-MEL-5 cells after 48 hrs by SRB assay; conditions: SK-MEL-5, 48 h
[2] = system: UACC-257; experiment: Growth inhibition of human UACC257 cells after 48 hrs by SRB assay; conditions: UACC-257, 48 h
[3] = system: UO-31; experiment: Growth inhibition of human UO31 cells after 48 hrs by SRB assay; conditions: UO-31, 48 h
[4] = system: KM12; experiment: Growth inhibition of human KM12 cells after 48 hrs by SRB assay; conditions: KM12, 48 h
[5] = system: OVCAR-8; experiment: Growth inhibition of human OVCAR8 cells after 48 hrs by SRB assay; conditions: OVCAR-8, 48 h
[6] = system: OVCAR-5; experiment: Growth inhibition of human OVCAR5 cells after 48 hrs by SRB assay; conditions: OVCAR-5, 48 h
[7] = system: OVCAR-3; experiment: Growth inhibition of human OVCAR-3 cells after 48 hrs by SRB assay; conditions: OVCAR-3, 48 h
[8] = system: SR; experiment: Growth inhibition of human SR cells after 48 hrs by SRB assay
[9] = system: RXF 393; experiment: Growth inhibition of human […] cells after 48 hrs by SRB assay; conditions: RXF 393, 48 h
[10] = system: ACHN; experiment: Growth inhibition of human ACHN cells after 48 hrs by SRB assay
[11] = system: A549; experiment: Growth inhibition of human A549 cells after 48 hrs by SRB assay; conditions: A549, 48 h
[12] = system: PC-3; experiment: Growth inhibition of human PC3 cells after 48 hrs by SRB assay; conditions: PC-3, 48 h
[13] = system: COLO 205; experiment: Growth inhibition of human COLO205 cells after 48 hrs by SRB assay; conditions: COLO 205, 48 h
[14] = system: NCI-H460; experiment: Growth inhibition of human NCI-H460 cells after 48 hrs by SRB assay; conditions: NCI-H460, 48 h
[15] = system: NCI-H226; experiment: Growth inhibition of human NCI-H226 cells after 48 hrs by SRB assay; conditions: NCI-H226, 48 h
[16] = system: EKVX; experiment: Growth inhibition of human EKVX cells after 48 hrs by SRB assay
[17] = system: U-251; experiment: Growth inhibition of human U251 cells after 48 hrs by SRB assay; conditions: U-251, 48 h
[18] = system: TK-10; experiment: Growth inhibition of human TK10 cells after 48 hrs by SRB assay; conditions: TK-10, 48 h
[19] = system: SF-539; experiment: Growth inhibition of human SF539 cells after 48 hrs by SRB assay; conditions: SF-539, 48 h
[20] = system: SNB-75; experiment: Growth inhibition of human SNB75 cells after 48 hrs by SRB assay; conditions: SNB-75, 48 h
[21] = system: HT-29; experiment: Growth inhibition of human HT-29 cells after 48 hrs by SRB assay; conditions: HT-29, 48 h
[22] = system: IGROV-1; experiment: Growth inhibition of human IGROV1 cells after 48 hrs by SRB assay; conditions: IGROV-1, 48 h
[23] = system: MDA-MB-231; experiment: Growth inhibition of human MDA-MB-231 cells after 48 hrs by SRB assay; conditions: MDA-MB-231, 48 h
[24] = system: HOP-62; experiment: Growth inhibition of human HOP62 cells after 48 hrs by SRB assay; conditions: HOP-62, 48 h
[25] = system: SF-268; experiment: Growth inhibition of human SF268 cells after 48 hrs by SRB assay; conditions: SF-268, 48 h
[26] = system: HL-60(TB); experiment: Growth inhibition of human HL-60(TB) cells after 48 hrs by SRB assay; conditions: HL-60, 48 h
[27] = system: K562; experiment: Growth inhibition of human K562 cells after 48 hrs by SRB assay; conditions: K562, 48 h
[28] = system: BT-549; experiment: Growth inhibition of human BT549 cells after 48 hrs by SRB assay; conditions: BT-549, 48 h
[29] = system: HCC 2998; experiment: Growth inhibition of human HCC2998 cells after 48 hrs by SRB assay; conditions: HCC 2998, 48 h
[30] = system: NCI-H23; experiment: Growth inhibition of human NCI-H23 cells after 48 hrs by SRB assay; conditions: NCI-H23, 48 h
[31] = system: SK-OV-3; experiment: Growth inhibition of human SKOV3 cells after 48 hrs by SRB assay; conditions: SK-OV-3, 48 h
[32] = system: NCI-H522; experiment: Growth inhibition of human NCI-H522 cells after 48 hrs by SRB assay; conditions: NCI-H522, 48 h
[33] = system: SK-MEL-2; experiment: Growth inhibition of human SK-MEL-2 cells after 48 hrs by SRB assay; conditions: SK-MEL-2, 48 h
[34] = system: UACC-62; experiment: Growth inhibition of human UACC62 cells after 48 hrs by SRB assay; conditions: UACC-62, 48 h
[35] = system: Malme-3M; experiment: Growth inhibition of human MALME-3M cells after 48 hrs by SRB assay
[36] = system: MCF7; experiment: Growth inhibition of human MCF7 cells after 48 hrs by SRB assay; conditions: MCF7, 48 h
[37] = system: 786-0; experiment: Growth inhibition of human 786-0 cells after 48 hrs by SRB assay; conditions: 786-0, 48 h
[38] = system: SNB-19; experiment: Growth inhibition of human SNB19 cells after 48 hrs by SRB assay; conditions: SNB-19, 48 h
[39] = Growth inhibition of human Hs 578T cells after 48 hrs by SRB assay
[40] = system: SK-MEL-28; experiment: Growth inhibition of human SK-MEL-28 cells after 48 hrs by SRB assay; conditions: SK-MEL-28, 48 h
[41] = system: NCI-H322M; experiment: Growth inhibition of human NCI-H322M cells after 48 hrs by SRB assay
[42] = system: MOLT-4; experiment: Growth inhibition of human MOLT4 cells after 48 hrs by SRB assay; conditions: MOLT-4, 48 h
[43] = system: A498; experiment: Growth inhibition of human A498 cells after 48 hrs by SRB assay; conditions: A498, 48 h
[44] = system: CAKI-1; experiment: Growth inhibition of human Caki1 cells after 48 hrs by SRB assay; conditions: CAKI-1, 48 h
[45] = system: LOX IMVI; experiment: Growth inhibition of human LOXIMVI cells after 48 hrs by SRB assay
[46] = system: M14; experiment: Growth inhibition of human M14 cells after 48 hrs by SRB assay; conditions: M14, 48 h
[47] = system: OVCAR-4; experiment: Growth inhibition of human OVCAR4 cells after 48 hrs by SRB assay; conditions: OVCAR-4, 48 h
[48] = system: T47D; experiment: Growth inhibition of human T47D cells after 48 hrs by SRB assay
[49] = system: HCT-116; experiment: Growth inhibition of human HCT116 cells after 48 hrs by SRB assay; conditions: HCT-116, 48 h
[50] = system: RPMI-8226; experiment: Growth inhibition of human RPMI8226 cells after 48 hrs by SRB assay; conditions: RPMI-8226, 48 h
[51] = system: HCT-15; experiment: Growth inhibition of human HCT15 cells after 48 hrs by SRB assay; conditions: HCT-15, 48 h
[52] = system: DU-145; experiment: Growth inhibition of human DU145 cells after 48 hrs by SRB assay; conditions: DU-145, 48 h
[53] = system: SF-295; experiment: Growth inhibition of human SF295 cells after 48 hrs by SRB assay; conditions: SF-295, 48 h
[54] = system: SW-620; experiment: Growth inhibition of human SW620 cells after 48 hrs by SRB assay; conditions: SW-620, 48 h
[55] = system: SN12C; experiment: Growth inhibition of human SN12C cells after 48 hrs by SRB assay
[56] = system: HOP-92; experiment: Growth inhibition of human HOP92 cells after 48 hrs by SRB assay; conditions: HOP-92, 48 h
[57] = system: NCI/ADR-RES; experiment: Growth inhibition of human NCI/ADR-RES cells after 48 hrs by SRB assay
[58] = system: MDA-MB-435; experiment: Growth inhibition of human MDA-MB-435 cells after 48 hrs by SRB assay; conditions: MDA-MB-435, 48 h
[59] = system: CCRF-CEM; experiment: Growth inhibition of human CCRF-CEM cells after 48 hrs by SRB assay

## O=C(Nc1ccc(Cc2ccccc2)cc1)Nc1nn(C(=O)Nc2ccc(Cc3ccccc3)cc2)c2ccccc12
[1]
  GI50: > 100 µM
[2]
  GI50: > 100 µM
[3]
  GI50: > 100 µM
[4]
  GI50: > 100 µM
[5]
  GI50: > 100 µM
[6]
  GI50: > 100 µM
[7]
  GI50: > 100 µM
[8]
  GI50: 16.3 µM
[9]
  GI50: 30.4 µM
[10]
  GI50: > 100 µM
[11]
  GI50: > 100 µM
[12]
  GI50: > 100 µM
[13]
  GI50: > 100 µM
[14]
  GI50: > 100 µM
[15]
  GI50: > 100 µM
[16]
  GI50: > 100 µM
[17]
  GI50: 70.2 µM
[18]
  GI50: > 100 µM
[19]
  GI50: > 100 µM
[20]
  GI50: 33.8 µM
[21]
  GI50: > 100 µM
[22]
  GI50: > 100 µM
[23]
  GI50: 47.1 µM
[24]
  GI50: 59.7 µM
[25]
  GI50: 75.6 µM
[26]
  GI50: > 100 µM
[27]
  GI50: 40.5 µM
[28]
  GI50: > 100 µM
[29]
  GI50: > 100 µM
[30]
  GI50: > 100 µM
[31]
  GI50: > 100 µM
[32]
  GI50: > 100 µM
[33]
  GI50: > 100 µM
[34]
  GI50: 41.6 µM
[35]
  GI50: > 100 µM
[36]
  GI50: > 100 µM
[37]
  GI50: > 100 µM
[38]
  GI50: > 100 µM
[39]
  GI50: 74.2 µM
[40]
  GI50: > 100 µM
[41]
  GI50: > 100 µM
[42]
  GI50: 63.2 µM
[43]
  GI50: 82.4 µM
[44]
  GI50: > 100 µM
[45]
  GI50: 71 µM
[46]
  GI50: > 100 µM
[47]
  GI50: > 100 µM
[48]
  GI50: > 100 µM
[49]
  GI50: > 100 µM
[50]
  GI50: > 100 µM
[51]
  GI50: > 100 µM
[52]
  GI50: 80 µM
[53]
  GI50: > 100 µM
[54]
  GI50: > 100 µM
[55]
  GI50: > 100 µM
[56]
  GI50: 18 µM
[57]
  GI50: > 100 µM
[58]
  GI50: > 100 µM

## COc1ccc(NC(=O)Nc2n[nH]c3ccccc23)cc1
[1]
  GI50: > 100 µM
[2]
  GI50: > 100 µM
[3]
  GI50: > 100 µM
[4]
  GI50: > 100 µM
[5]
  GI50: > 100 µM
[6]
  GI50: > 100 µM
[7]
  GI50: > 100 µM
[8]
  GI50: > 100 µM
[9]
  GI50: > 100 µM
[10]
  GI50: > 100 µM
[11]
  GI50: > 100 µM
[12]
  GI50: > 100 µM
[13]
  GI50: > 100 µM
[14]
  GI50: > 100 µM
[15]
  GI50: > 100 µM
[16]
  GI50: > 100 µM
[17]
  GI50: > 100 µM
[18]
  GI50: > 100 µM
[19]
  GI50: > 100 µM
[20]
  GI50: > 100 µM
[21]
  GI50: > 100 µM
[22]
  GI50: > 100 µM
[23]
  GI50: > 100 µM
[24]
  GI50: > 100 µM
[25]
  GI50: > 100 µM
[26]
  GI50: > 100 µM
[27]
  GI50: > 100 µM
[28]
  GI50: > 100 µM
[29]
  GI50: > 100 µM
[30]
  GI50: > 100 µM
[31]
  GI50: > 100 µM
[32]
  GI50: > 100 µM
[33]
  GI50: > 100 µM
[34]
  GI50: > 100 µM
[35]
  GI50: > 100 µM
[36]
  GI50: > 100 µM
[37]
  GI50: > 100 µM
[38]
  GI50: > 100 µM
[39]
  GI50: > 100 µM
[40]
  GI50: > 100 µM
[41]
  GI50: > 100 µM
[42]
  GI50: > 100 µM
[43]
  GI50: > 100 µM
[59]
  GI50: 59.6 µM
[44]
  GI50: > 100 µM
[45]
  GI50: > 100 µM
[46]
  GI50: > 100 µM
[47]
  GI50: > 100 µM
[48]
  GI50: 100 µM
[49]
  GI50: > 100 µM
[50]
  GI50: > 100 µM
[51]
  GI50: > 100 µM
[52]
  GI50: > 100 µM
[53]
  GI50: > 100 µM
[54]
  GI50: > 100 µM
[55]
  GI50: > 100 µM
[56]
  GI50: > 100 µM
[57]
  GI50: > 100 µM
[58]
  GI50: > 100 µM
